{"source": "paper PMC8086025", "about": "“A benzopyran with antiarrhythmic activity is an inhibitor of Kir3.1-containing potassium channels” (The Journal of Biological Chemistry, 2021)", "key": {"[1]": {"target": "T1, Kir3.4/4(S143F) channel mutant (Homo sapiens, UniProt P48544, S143F)", "T1 construct": "expressed in transfected cells; host or cells: Xenopus laevis oocytes (cRNA injection)", "T1 sequence (P48544 whole entry S143F, one chain of several)": "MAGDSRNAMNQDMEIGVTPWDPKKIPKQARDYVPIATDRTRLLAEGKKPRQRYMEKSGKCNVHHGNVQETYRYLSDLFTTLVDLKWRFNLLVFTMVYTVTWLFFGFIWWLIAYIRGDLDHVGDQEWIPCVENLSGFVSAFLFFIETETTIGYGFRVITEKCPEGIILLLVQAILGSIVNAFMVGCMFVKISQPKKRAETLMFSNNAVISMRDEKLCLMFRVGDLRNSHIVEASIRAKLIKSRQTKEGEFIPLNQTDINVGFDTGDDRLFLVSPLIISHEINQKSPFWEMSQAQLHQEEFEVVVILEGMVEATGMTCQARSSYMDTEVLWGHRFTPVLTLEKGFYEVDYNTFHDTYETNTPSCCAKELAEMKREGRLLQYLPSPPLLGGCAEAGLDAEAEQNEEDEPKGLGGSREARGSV", "assay": "TEVC in Xenopus oocytes, Kir3.4/4(S143F)", "type": "cell-based", "conditions": "read-out: IC50, inhibition of Kir3.4/4(S143F)"}, "[2]": {"target": "T2, Kir3.1(E141A)/4 (Homo sapiens, UniProt P48544+P48549, E141A)", "T2 construct": "expressed in transfected cells; host or cells: Xenopus laevis oocytes (cRNA injection)", "T2 sequence (P48549 whole entry E141A, one chain of several)": "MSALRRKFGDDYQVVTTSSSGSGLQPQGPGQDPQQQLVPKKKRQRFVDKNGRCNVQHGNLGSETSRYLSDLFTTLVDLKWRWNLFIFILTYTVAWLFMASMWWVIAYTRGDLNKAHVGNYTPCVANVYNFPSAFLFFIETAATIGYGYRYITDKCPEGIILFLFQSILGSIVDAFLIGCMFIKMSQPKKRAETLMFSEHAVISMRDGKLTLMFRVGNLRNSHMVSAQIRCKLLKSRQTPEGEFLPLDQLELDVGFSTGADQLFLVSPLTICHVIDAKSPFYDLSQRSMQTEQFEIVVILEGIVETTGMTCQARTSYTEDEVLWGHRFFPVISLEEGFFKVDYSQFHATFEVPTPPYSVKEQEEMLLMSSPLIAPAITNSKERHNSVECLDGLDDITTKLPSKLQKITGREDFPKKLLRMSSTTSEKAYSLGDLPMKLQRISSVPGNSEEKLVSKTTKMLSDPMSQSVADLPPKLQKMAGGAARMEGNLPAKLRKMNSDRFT", "assay": "TEVC in Xenopus oocytes, Kir3.1(E141A)/4", "type": "cell-based", "conditions": "1 μM"}, "[3]": {"target": "T3, Kir3.1(D173A) mutant (Homo sapiens, UniProt P48544+P48549, D173A)", "T3 construct": "expressed in transfected cells; host or cells: Xenopus laevis oocytes (cRNA injection)", "T3 sequence (P48549 whole entry D173A, one chain of several)": "as the sequence (P48549 whole entry E141A, one chain of several) above, with A141E, D173A counted along it", "assay": "TEVC in Xenopus oocytes, Kir3.1(D173A)/4", "type": "cell-based", "conditions": "1 μM", "description": "(§1) X. laevis oocytes were isolated and microinjected as previously described ([6]). Human Kir3.1, mouse Kir3.2, and human Kir3.4 DNA constructs were used for electrophysiology experiments. All cRNA constructs were injected in the amount of 2 ng per oocyte. Injected oocytes were incubated for 2 to 3 days at 18 °C to allow for expression. Whole-cell oocyte currents were then measured using a GeneClamp 500 amplifier (Axon Instruments). Microelectrodes had resistances of 0.5 to 1 megohm using a 3M KCl solution in 1.4% agarose. Oocytes were perfused with a low K^+ (LK) solution ND96 (2 mM KCl, 96 mM NaCl, 1 mM MgCl2, 1.8 mM CaCl2, 5 mM HEPES-Na) to establish a baseline for the recordings. Basal current was measured in a high potassium (HK) solution ND96K (96 mM KCl, 10 mM HEPES-K, 1 mM MgCl2, 1.8 mM CaCl2). To block the current, the oocyte chamber was perfused with 4 mM BaCl2 in ND96K. Only the Barium-sensitive current was used for statistical analysis. To measure the inhibitory activity of the channels, 1 μM BP-G1 in ND96K (HK) was used. Typically, oocytes were held at 0 mV (EK) and the current was monitored constantly using a ramp protocol with a command potential from −80 to +80 mV. Current amplitude was measured at the end of a 1 s sweep. All currents were analyzed when they reached steady state. Error bars in the figures represent SD (N > 4)."}, "[4]": {"target": "Kir3.1(E141A/D173A) (Homo sapiens, UniProt P48544+P48549, D173A/E141A)", "sequence (P48549 whole entry E141A/D173A, one chain of several)": "as the sequence (P48549 whole entry E141A, one chain of several) above, with D173A counted along it", "type": "cell-based", "conditions": "1 μM, TEVC"}, "[5]": {"target": "T4, NaV1.2 and NaVβ1 (Rattus norvegicus, UniProt P04775)", "T4 construct": "expressed in transfected cells; host or cells: Xenopus oocytes", "T4 sequence (P04775 whole entry)": "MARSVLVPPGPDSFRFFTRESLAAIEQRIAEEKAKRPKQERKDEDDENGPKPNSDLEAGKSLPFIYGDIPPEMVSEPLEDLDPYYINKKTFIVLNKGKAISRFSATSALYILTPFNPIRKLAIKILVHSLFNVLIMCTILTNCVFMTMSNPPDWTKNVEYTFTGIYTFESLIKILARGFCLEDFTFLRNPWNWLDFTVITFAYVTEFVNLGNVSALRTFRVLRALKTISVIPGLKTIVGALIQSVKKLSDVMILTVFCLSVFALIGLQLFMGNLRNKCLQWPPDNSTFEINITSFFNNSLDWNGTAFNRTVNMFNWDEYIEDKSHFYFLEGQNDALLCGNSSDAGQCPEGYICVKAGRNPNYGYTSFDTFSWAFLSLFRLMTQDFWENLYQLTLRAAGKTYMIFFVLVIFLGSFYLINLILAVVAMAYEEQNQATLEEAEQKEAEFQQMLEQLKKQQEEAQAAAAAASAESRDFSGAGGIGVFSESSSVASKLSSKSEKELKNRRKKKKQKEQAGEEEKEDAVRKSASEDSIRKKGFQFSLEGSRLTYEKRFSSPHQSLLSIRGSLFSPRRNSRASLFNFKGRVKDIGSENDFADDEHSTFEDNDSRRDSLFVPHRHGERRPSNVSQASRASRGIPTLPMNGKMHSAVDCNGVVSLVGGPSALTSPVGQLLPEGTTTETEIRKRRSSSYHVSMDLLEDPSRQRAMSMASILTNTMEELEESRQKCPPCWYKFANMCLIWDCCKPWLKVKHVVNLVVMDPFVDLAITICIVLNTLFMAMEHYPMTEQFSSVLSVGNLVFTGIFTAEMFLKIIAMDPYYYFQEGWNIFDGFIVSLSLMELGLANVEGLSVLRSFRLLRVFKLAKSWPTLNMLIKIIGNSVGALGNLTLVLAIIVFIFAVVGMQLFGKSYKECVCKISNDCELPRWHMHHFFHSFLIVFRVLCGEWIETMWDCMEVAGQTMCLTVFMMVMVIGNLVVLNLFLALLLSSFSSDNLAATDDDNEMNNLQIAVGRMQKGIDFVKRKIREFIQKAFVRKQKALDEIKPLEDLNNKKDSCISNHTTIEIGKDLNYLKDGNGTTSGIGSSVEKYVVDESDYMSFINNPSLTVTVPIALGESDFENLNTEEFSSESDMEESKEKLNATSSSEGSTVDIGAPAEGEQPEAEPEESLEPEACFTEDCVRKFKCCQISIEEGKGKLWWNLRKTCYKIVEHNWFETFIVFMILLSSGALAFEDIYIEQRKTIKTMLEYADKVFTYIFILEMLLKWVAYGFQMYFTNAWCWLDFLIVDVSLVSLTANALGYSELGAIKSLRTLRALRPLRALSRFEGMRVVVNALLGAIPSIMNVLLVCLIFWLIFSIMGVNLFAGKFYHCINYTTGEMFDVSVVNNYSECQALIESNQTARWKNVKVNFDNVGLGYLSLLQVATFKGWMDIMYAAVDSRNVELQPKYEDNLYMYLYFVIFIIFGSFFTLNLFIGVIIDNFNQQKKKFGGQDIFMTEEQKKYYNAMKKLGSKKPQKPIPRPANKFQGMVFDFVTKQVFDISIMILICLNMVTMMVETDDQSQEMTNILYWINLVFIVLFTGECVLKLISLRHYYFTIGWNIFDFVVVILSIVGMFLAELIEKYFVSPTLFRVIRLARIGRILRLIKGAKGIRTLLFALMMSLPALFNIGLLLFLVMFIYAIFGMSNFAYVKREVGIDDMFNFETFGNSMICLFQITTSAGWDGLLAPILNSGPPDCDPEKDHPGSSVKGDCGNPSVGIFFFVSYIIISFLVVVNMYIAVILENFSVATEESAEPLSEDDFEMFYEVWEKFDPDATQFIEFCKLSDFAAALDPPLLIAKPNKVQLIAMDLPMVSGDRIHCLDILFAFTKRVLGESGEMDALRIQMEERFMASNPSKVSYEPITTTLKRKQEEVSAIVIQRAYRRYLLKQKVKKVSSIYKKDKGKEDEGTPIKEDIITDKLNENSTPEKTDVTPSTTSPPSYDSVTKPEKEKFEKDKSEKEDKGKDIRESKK", "T4 sequence (Q00954 19-218 partner)": "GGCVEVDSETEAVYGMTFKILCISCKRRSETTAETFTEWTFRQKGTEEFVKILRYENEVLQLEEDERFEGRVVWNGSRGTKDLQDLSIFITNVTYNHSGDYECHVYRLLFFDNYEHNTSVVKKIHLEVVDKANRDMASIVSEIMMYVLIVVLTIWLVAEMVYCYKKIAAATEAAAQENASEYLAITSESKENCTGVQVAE", "assay": "NaV1.2 currents in Xenopus oocytes", "type": "cell-based"}, "[6]": {"target": "T5, Kir2.1 (Homo sapiens, UniProt P63252)", "T5 construct": "host or cells: HEK293", "assay": "Cloned cardiac ion channel manual patch clamp, Kir2.1", "type": "cell-based", "conditions": "MPC (manual patch clamp)"}, "[7]": {"target": "Kv1.7 (Homo sapiens, UniProt Q96RP8)", "sequence (Q96RP8 whole entry)": "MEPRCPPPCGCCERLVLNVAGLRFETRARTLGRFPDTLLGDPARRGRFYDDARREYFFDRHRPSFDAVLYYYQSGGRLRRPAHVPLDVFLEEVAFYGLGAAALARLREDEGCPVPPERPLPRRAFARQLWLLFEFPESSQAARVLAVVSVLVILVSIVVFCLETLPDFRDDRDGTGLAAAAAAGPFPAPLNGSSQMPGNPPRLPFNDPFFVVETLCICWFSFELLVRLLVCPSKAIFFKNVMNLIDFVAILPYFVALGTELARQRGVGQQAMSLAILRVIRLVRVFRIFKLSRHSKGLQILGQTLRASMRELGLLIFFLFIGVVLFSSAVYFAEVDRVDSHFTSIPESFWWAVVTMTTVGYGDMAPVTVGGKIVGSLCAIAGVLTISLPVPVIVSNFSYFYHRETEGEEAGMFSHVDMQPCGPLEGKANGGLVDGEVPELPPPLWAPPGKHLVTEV", "assay": "Cloned cardiac ion channel electrophysiology, Kv1.7", "type": "cell-based", "description": "Table S7-1. Table detailing composition (in mM) of external experimental assay solutions […]\n%Inhibition = (1 − IIntervention/IControl) × 100\nEquation 1 – Percentage Inhibition\nInhibition of current (or leak-subtracted current) was calculated from steady-state current recorded in the absence (IControl) and presence of test-article (IIntervention).\nEquation 2 – Concentration-response curve\nConcentration-response data were fitted with a sigmoidal function of the form above, where YMin and YMax represent maximum and minimum current inhibition which were constrained to 100 and 0 respectively and x is the Log[DRUG (M)] based on GraphPad Prism analysis. % inhibition was calculated as in Equation 1.\n(also on this page, place not known: […] […] + −+= − HnxLogIC MinMax Min YYYInhibition )( 50101 )(% inhi bition Log[ DRUG analysis .) […]"}, "[8]": {"tested_on": "Ca", "assay": "Radioligand binding", "conditions": "listed as Benzopyran-G1"}, "[9]": {"target": "T6, Dopamine transporter (Homo sapiens, UniProt Q01959)", "T6 construct": "expressed in transfected cells; host or cells: CHO cells", "assay": "Radioligand binding, [3H]BTCP"}, "[10]": {"target": "T7, Kir3.1/4 channel (Homo sapiens, UniProt P48544+P48549)", "T7 sequence (P48549 1-501)": "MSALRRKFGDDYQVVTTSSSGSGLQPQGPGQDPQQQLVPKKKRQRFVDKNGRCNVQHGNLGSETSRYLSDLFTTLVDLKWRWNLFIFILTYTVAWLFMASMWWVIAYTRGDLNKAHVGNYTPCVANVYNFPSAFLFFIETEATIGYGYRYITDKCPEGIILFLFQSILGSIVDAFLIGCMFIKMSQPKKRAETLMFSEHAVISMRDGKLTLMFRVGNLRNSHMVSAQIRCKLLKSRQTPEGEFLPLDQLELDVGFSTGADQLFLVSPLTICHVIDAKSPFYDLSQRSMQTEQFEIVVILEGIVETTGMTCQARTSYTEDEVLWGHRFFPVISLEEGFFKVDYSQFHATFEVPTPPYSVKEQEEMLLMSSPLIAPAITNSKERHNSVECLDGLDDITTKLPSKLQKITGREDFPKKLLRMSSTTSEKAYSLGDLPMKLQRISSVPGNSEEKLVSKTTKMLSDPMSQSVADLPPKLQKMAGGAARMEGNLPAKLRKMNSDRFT", "T7 sequence (P48544 1-419)": "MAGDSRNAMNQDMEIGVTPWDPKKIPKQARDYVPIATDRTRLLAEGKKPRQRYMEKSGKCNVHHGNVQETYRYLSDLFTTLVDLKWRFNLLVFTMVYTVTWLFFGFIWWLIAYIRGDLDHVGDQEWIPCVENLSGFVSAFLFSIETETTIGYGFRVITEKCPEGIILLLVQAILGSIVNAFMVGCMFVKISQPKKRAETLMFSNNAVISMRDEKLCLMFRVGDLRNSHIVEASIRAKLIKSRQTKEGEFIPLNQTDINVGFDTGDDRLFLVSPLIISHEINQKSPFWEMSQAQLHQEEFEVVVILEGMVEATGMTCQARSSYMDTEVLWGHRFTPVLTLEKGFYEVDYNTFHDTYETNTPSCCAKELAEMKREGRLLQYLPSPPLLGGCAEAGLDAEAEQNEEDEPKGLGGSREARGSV", "assay": "TEVC in Xenopus oocytes, Kir3.1/4", "type": "cell-based", "parameters": "expressed in transfected cells; host or cells: Xenopus laevis oocytes (cRNA injection)", "description": "as §1"}}, "note": "Several values for one entry are separate records, joined by “and”; a condition that tells them apart may be missing. Equal entries are not always repeated. Entries after “also recorded” stand apart in the source; their conditions may differ.", "data": [{"molecule": "Cc1cc(CO)nc2cc3c(cc12)OC(C)(C)[C@H](O)[C@H]3NCCc1ccccc1", "note": "[BP-G1, (3R,4S)-7-(hydroxymethyl)-2,2,9-trimethyl-4-(2-phenylethylamino)-3,4-dihydropyrano[2,3-g]quinolin-3-ol]", "values": [{"measurement": "IC50", "setting": "[1]", "value": 62.1, "unit": "nM"}, {"measurement": "current block, Kir3.1(E141A)/4", "setting": "[2]", "value": 25, "unit": "%"}, {"measurement": "current block, Kir3.1(D173A)", "setting": "[3]", "value": "~25", "unit": "%"}, {"measurement": "current block, Kir3.1(E141A/D173A)", "setting": "[4]", "value": "abolished any current block; also recorded: abolished the block"}, {"measurement": "block of TTX-sensitive NaV1.2 currents", "setting": "[5]; 10 µM", "value": "did not block"}, {"measurement": "average NaV1.2 current", "setting": "[5]; 10 μM BP-G1, vehicle -2.16 ± 0.36 μA, mean ± SD, N=10", "value": -2.17, "unit": "μA"}, {"measurement": "IC50, NaV1.2", "setting": "[5]; Table S1", "value": "> 10000", "unit": "nM"}, {"measurement": "IC50", "setting": "[6]", "value": "> 10000", "unit": "nM"}, {"measurement": "IC50", "setting": "[7]", "value": 7000, "unit": "nM"}, {"measurement": "% Specific Binding at 10 µM", "setting": "[8]", "value": "42.600% and < 50%"}, {"measurement": "IC50", "setting": "[9]", "value": 1000, "unit": "nM"}, {"measurement": "Ki", "setting": "[9]", "value": 550, "unit": "nM"}, {"measurement": "nH, Dopamine transporter (h)", "setting": "[9]", "value": 1}, {"measurement": "% Specific Binding at 10 µM", "setting": "[9]; 10 µM", "value": 91.2, "unit": "%"}, {"measurement": "inhibition at 10 µM", "setting": "[9]; 10 µM, read-out: % Specific Binding at 10 µM", "value": 91.2, "unit": "%"}, {"measurement": "current block, wild-type Kir3.1/4", "setting": "[10]; 1 μM, TEVC", "value": "75 to 80", "unit": "%"}, {"measurement": "IC50", "setting": "[10]; TEVC oocyte experiments, read-out: IC50, inhibition of Kir3.1/4", "value": "55 nM and 55.9 nM"}]}]}
